Experimental data: patent publication US6352958B1, “Cycloimido-substituted benzofused heterocyclic herbicides” (FMC Corporation, priority 1997, dated 2002)

What was measured:
Format in all cases: in vivo
[1] = tested on: common cocklebur (Xanthium strumarium L.); experiment: Postemergence herbicidal activity, cocklebur; details: rate of application 0.3 Kg/Ha, rated after 12-17 days
Method: (§1) The benzofused heterocyclic compounds of this invention were tested for pre- and postemergence herbicidal activity using a variety of crops and weeds. The test plants included soybean (Glycine max var. Winchester), field corn (Zea mays var. Pioneer 3732), wheat (Triticum aestivum var. Lew), morningglory (Ipomea lacunosa or Ipomea hederacea), velvetleaf (Abutilon theophrasti), green foxtail (Setaria viridis), Johnsongrass (Sorghum halepense), blackgrass (Aloepecurus myosuroides), common chickweed (Stellaria media), and common cocklebur (Xanthium strumarium L.).
(§2) For preemergence testing, two disposable fiber flats (8 cm×15 cm×25 cm) for each rate of application of each candidate herbicide were filled to an approximate depth of 6.5 cm with steam-sterilized sandy loam soil. The soil was leveled and impressed with a template to provide five evenly spaced furrows 13 cm long and 0.5 cm deep in each flat. Seeds of soybean, wheat, corn, green foxtail, and johnsongrass were planted in the furrows of the first flat, and seeds of velvetleaf, morningglory, common chickweed, cocklebur, and blackgrass were planted in the furrows of the second flat. The five-row template was employed to firmly press the seeds into place. A topping soil of equal portions of sand and sandy loam soil was placed uniformly on top of each flat to a depth of approximately 0.5 cm. Flats for postemergence testing were prepared in the same manner except that they were planted 9-14 days prior to the preemergence flats and were placed in a greenhouse and watered, thus allowing the seeds to germinate and the foliage to develop.
(§3) In both pre- and postemergence tests, a stock solution of the candidate herbicide was prepared by dissolving 0.27 g of the compound in 20 mL of water/acetone (50/50) containing 0.5% v/v sorbitan monolaurate. For an application rate of 3000 g/ha of herbicide a 10 mL portion of the stock solution was diluted with water/acetone (50/50) to 45 mL.
(§4) The preemergence flats were initially subjected to a light water spray. The four flats were placed two by two along a conveyor belt (i.e., the two preemergence followed by the two postemergence flats). The conveyor belt fed under a spray nozzle mounted about ten inches above the post-emergent foliage. The preemergent flats were elevated on the belt so that the soil surface was at the same level below the spray nozzle as the foliage canopy of the postemergent plants. The spray of herbicidal solution was commenced and once stabilized, the flats were passed under the spray at a speed to receive a coverage equivalent of 100 L/ha. At this coverage the application rates are those shown in the above table for the individual herbicidal solutions. The preemergence flats were watered immediately thereafter, placed in the greenhouse and watered regularly at the soil surface. The postemergence flats were immediately placed in the green-house and not watered until 24 hours after treatment with the test solution. Thereafter they were regularly watered at ground level. After 12-17 days the plants were examined and the phytotoxicity data were recorded.
(§5) Phytotoxicity data were taken as percent control. Percent control was determined by a method similar to the 0 to 100 rating system disclosed in “Research Methods in Weed Science,” 2nd ed., B. Truelove, Ed.; Southern Weed Science Society; Auburn University, Auburn, Ala., 1977.

[2] = tested on: green foxtail (Setaria viridis); experiment: Preemergence herbicidal activity, green foxtail; details: Rate of Application 0.3 Kg/Ha, examined after 12-17 days
Method: as §1, §2, §3, §4, §5

[3] = tested on: Johnsongrass (Sorghum halepense); experiment: Postemergence herbicidal activity, johnsongrass; details: rate of application 0.3 Kg/Ha, rated after 12-17 days
Method: as §1, §2, §3, §4, §5

[4] = tested on: common cocklebur (Xanthium strumarium L.); experiment: Preemergence herbicidal activity, cocklebur; details: Rate of Application 0.3 Kg/Ha, examined after 12-17 days
Method: as §1, §2, §3, §4, §5

[5] = tested on: Johnsongrass (Sorghum halepense); experiment: Preemergence herbicidal activity, johnsongrass; details: Rate of Application 0.3 Kg/Ha, examined after 12-17 days
Method: as §1, §2, §3, §4, §5

[6] = tested on: morningglory (Ipomea lacunosa or Ipomea hederacea); experiment: Preemergence herbicidal activity, morningglory; details: Rate of Application 0.3 Kg/Ha, examined after 12-17 days
Method: as §1, §2, §3, §4, §5

[7] = tested on: field corn (Zea mays var. Pioneer 3732); experiment: Preemergence herbicidal activity, corn; details: Rate of Application 0.3 Kg/Ha, examined after 12-17 days
Method: as §1, §2, §3, §4, §5

[8] = tested on: soybean (Glycine max var. Winchester); experiment: Postemergence herbicidal activity, soybean; details: rate of application 0.3 Kg/Ha, rated after 12-17 days
Method: as §1, §2, §3, §4, §5

[9] = tested on: common chickweed (Stellaria media); experiment: Preemergence herbicidal activity, chickweed; details: Rate of Application 0.3 Kg/Ha, examined after 12-17 days
Method: as §1, §2, §3, §4, §5

[10] = tested on: wheat (Triticum aestivum var. Lew); experiment: Postemergence herbicidal activity, wheat; details: rate of application 0.3 Kg/Ha, rated after 12-17 days
Method: as §1, §2, §3, §4, §5

[11] = tested on: common chickweed (Stellaria media); experiment: Postemergence herbicidal activity, chickweed; details: rate of application 0.3 Kg/Ha, rated after 12-17 days
Method: as §1, §2, §3, §4, §5

[12] = tested on: velvetleaf (Abutilon theophrasti); experiment: Preemergence herbicidal activity, velvetleaf; details: Rate of Application 0.3 Kg/Ha, examined after 12-17 days
Method: as §1, §2, §3, §4, §5

[13] = tested on: green foxtail (Setaria viridis); experiment: Postemergence herbicidal activity, green foxtail; details: rate of application 0.3 Kg/Ha, rated after 12-17 days
Method: as §1, §2, §3, §4, §5

[14] = tested on: field corn (Zea mays var. Pioneer 3732); experiment: Postemergence herbicidal activity, corn; details: rate of application 0.3 Kg/Ha, rated after 12-17 days
Method: as §1, §2, §3, §4, §5

[15] = tested on: morningglory (Ipomea lacunosa or Ipomea hederacea); experiment: Postemergence herbicidal activity, morningglory; details: rate of application 0.3 Kg/Ha, rated after 12-17 days
Method: as §1, §2, §3, §4, §5

[16] = tested on: soybean (Glycine max var. Winchester); experiment: Preemergence herbicidal activity, soybean; details: Rate of Application 0.3 Kg/Ha, examined after 12-17 days
Method: as §1, §2, §3, §4, §5

[17] = tested on: wheat (Triticum aestivum var. Lew); experiment: Preemergence herbicidal activity, wheat; details: Rate of Application 0.3 Kg/Ha, examined after 12-17 days
Method: as §1, §2, §3, §4, §5

[18] = tested on: velvetleaf (Abutilon theophrasti); experiment: Postemergence herbicidal activity, velvetleaf; details: rate of application 0.3 Kg/Ha, rated after 12-17 days
Method: as §1, §2, §3, §4, §5

Row | Structure (SMILES) | Postemergence herbicidal activity (% control) XANPE [1] [%] | PREEMERGENCE HERBICIDAL ACTIVITY (% CONTROL) SETVI [2] [%] | Postemergence herbicidal activity (% control) SORHA [3] [%] | PREEMERGENCE HERBICIDAL ACTIVITY (% CONTROL) XANPE [4] [%] | PREEMERGENCE HERBICIDAL ACTIVITY (% CONTROL) SORHA [5] [%] | PREEMERGENCE HERBICIDAL ACTIVITY (% CONTROL) IPOSS [6] [%] | PREEMERGENCE HERBICIDAL ACTIVITY (% CONTROL) CRN [7] [%] | Postemergence herbicidal activity (% control) SOY [8] [%] | PREEMERGENCE HERBICIDAL ACTIVITY (% CONTROL) STEME [9] [%] | Postemergence herbicidal activity (% control) WHT [10] [%] | Postemergence herbicidal activity (% control) STEME [11] [%] | PREEMERGENCE HERBICIDAL ACTIVITY (% CONTROL) ABUTH [12] [%] | Postemergence herbicidal activity (% control) SETVI [13] [%] | Postemergence herbicidal activity (% control) CRN [14] [%] | Postemergence herbicidal activity (% control) IPOSS [15] [%] | PREEMERGENCE HERBICIDAL ACTIVITY (% CONTROL) SOY [16] [%] | PREEMERGENCE HERBICIDAL ACTIVITY (% CONTROL) WHT [17] [%] | Postemergence herbicidal activity (% control) ABUTH [18] [%]
1 | CCCc1cc2c(Cl)cc(F)c(-n3c(=O)cc(C(F)(F)F)n(C)c3=O)c2o1 [Compound 223] | 100 | 100 | 100 | 90 | 100 | 100 | 80 | 95 | 100 | 40 | 100 | 100 | 100 | 90 | 100 | 100 | 50 | 100
2 | Cn1c(C(F)(F)F)cc(=O)n(-c2c(F)cc(Cl)c3cc(C(C)(C)NS(C)(=O)=O)oc23)c1=O [Compound 255] | 100 | 100 | 100 | 100 | 100 | 100 | 95 | 100 | 100 | 100 | 100 | 100 | 100 | 100 | 100 | 100 | 90 | 100
3 | Cn1c(C(F)(F)F)cc(=O)n(-c2ccc(Cl)c3cc(C(=O)O)oc23)c1=O [Compound 266] | 10 | 30 | 40 | 0 | 30 | 70 | 60 | 60 | 0 | 40 | 10 | 40 | 40 | 60 | 60 | 50 | 30 | 50
4 | Cn1c(C(F)(F)F)cc(=O)n(-c2ccc(Cl)c3cc(C(C)(C)O)oc23)c1=O [Compound 241] | 95 | 100 | 70 | 100 | 100 | 100 | 95 | 90 | 100 | 60 | 85 | 100 | 100 | 70 | 100 | 60 | 70 | 100
